Legend:
Test in all cases: relative viability (nuclei count vs DMSO), 5 days (fraction); higher = more cells survive
A-427 = tested on: A-427
Outline: (§1)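 Lung cancer cell lines in 1536-well plates got either a single drug or a fixed anchor-drug dose together with five library-drug doses (not always all listed) in √10 steps, by pin tool, on the day after seeding. Nuclei were counted after 5 days, and relative viability is the treated-to-vehicle ratio of nuclei counts. Values are medians of duplicate plates.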

ABC-1 = tested on: ABC-1
Outline: as §1

CAL-12T = tested on: CAL-12T
Outline: as §1

H3255 = tested on: H3255
Outline: as §1

NCI-H1355 = tested on: NCI-H1355
Outline: as §1

NCI-H1437 = tested on: NCI-H1437
Outline: as §1

NCI-H1651 = tested on: NCI-H1651
Outline: as §1

NCI-H1666 = tested on: NCI-H1666
Outline: as §1

NCI-H1792 = tested on: NCI-H1792
Outline: as §1

NCI-H1793 = tested on: NCI-H1793
Outline: as §1

NCI-H2009 = tested on: NCI-H2009
Outline: as §1

NCI-H2023 = tested on: NCI-H2023
Outline: as §1

NCI-H2087 = tested on: NCI-H2087
Outline: as §1

NCI-H23 = tested on: NCI-H23
Outline: as §1

NCI-H358 = tested on: NCI-H358
Outline: as §1

NCI-H522 = tested on: NCI-H522
Outline: as §1

NCI-H727 = tested on: NCI-H727
Outline: as §1

NCI-H838 = tested on: NCI-H838
Outline: as §1

PC-14 = tested on: PC-14
Outline: as §1

SK-MES-1 = tested on: SK-MES-1
Outline: as §1

SW 1573 = tested on: SW 1573
Outline: as §1

UMC-11 = tested on: UMC-11
Outline: as §1

## Oc1nc(-c2ccc(C(F)(F)F)cc2)nc2c1CSCC2 [XAV939] + CC(=O)c1c(C)c2cnc(Nc3ccc(N4CCNCC4)cn3)nc2n(C2CCCC2)c1=O [Palbociclib] (partner 0.5 µM)
A-427; first compound 0.08 µM
  relative viability: 0.525
A-427; first compound 0.253 µM
  relative viability: 0.52
A-427; first compound 0.8 µM
  relative viability: 0.502
A-427; first compound 2.53 µM
  relative viability: 0.504
ABC-1; first compound 0.253 µM
  relative viability: 0.587
ABC-1; first compound 0.8 µM
  relative viability: 0.578
ABC-1; first compound 2.53 µM
  relative viability: 0.343
CAL-12T; first compound 0.08 µM
  relative viability: 0.465
CAL-12T; first compound 0.253 µM
  relative viability: 0.342
CAL-12T; first compound 0.8 µM
  relative viability: 0.263
CAL-12T; first compound 2.53 µM
  relative viability: 0.209
H3255; first compound 0.08 µM
  relative viability: 0.311
H3255; first compound 0.253 µM
  relative viability: 0.317
H3255; first compound 0.8 µM
  relative viability: 0.314
H3255; first compound 2.53 µM
  relative viability: 0.291
NCI-H1355; first compound 0.08 µM
  relative viability: 0.401
NCI-H1355; first compound 0.253 µM
  relative viability: 0.319
NCI-H1355; first compound 0.8 µM
  relative viability: 0.351
NCI-H1355; first compound 2.53 µM
  relative viability: 0.282
NCI-H1437; first compound 0.08 µM
  relative viability: 0.32
NCI-H1437; first compound 0.253 µM
  relative viability: 0.297
NCI-H1437; first compound 0.8 µM
  relative viability: 0.301
NCI-H1437; first compound 2.53 µM
  relative viability: 0.194
NCI-H1651; first compound 0.08 µM
  relative viability: 0.566
NCI-H1651; first compound 0.253 µM
  relative viability: 0.521
NCI-H1651; first compound 0.8 µM
  relative viability: 0.529
NCI-H1651; first compound 2.53 µM
  relative viability: 0.462
NCI-H1666; first compound 0.08 µM
  relative viability: 0.678
NCI-H1666; first compound 0.253 µM
  relative viability: 0.552
NCI-H1666; first compound 0.8 µM
  relative viability: 0.623
NCI-H1666; first compound 2.53 µM
  relative viability: 0.64
NCI-H1792; first compound 0.08 µM
  relative viability: 0.777
NCI-H1792; first compound 0.253 µM
  relative viability: 0.425
NCI-H1792; first compound 0.8 µM
  relative viability: 0.675
NCI-H1792; first compound 2.53 µM
  relative viability: 0.558
NCI-H1793; first compound 0.08 µM
  relative viability: 0.353
NCI-H1793; first compound 0.253 µM
  relative viability: 0.317
NCI-H1793; first compound 0.8 µM
  relative viability: 0.307
NCI-H1793; first compound 2.53 µM
  relative viability: 0.281
NCI-H2009; first compound 0.08 µM
  relative viability: 0.275
NCI-H2009; first compound 0.253 µM
  relative viability: 0.239
NCI-H2009; first compound 0.8 µM
  relative viability: 0.188
NCI-H2009; first compound 2.53 µM
  relative viability: 0.317
NCI-H2023; first compound 0.08 µM
  relative viability: 0.405
NCI-H2023; first compound 0.253 µM
  relative viability: 0.291
NCI-H2023; first compound 0.8 µM
  relative viability: 0.328
NCI-H2023; first compound 2.53 µM
  relative viability: 0.295
NCI-H2087; first compound 0.08 µM
  relative viability: 0.325
NCI-H2087; first compound 0.253 µM
  relative viability: 0.182
NCI-H2087; first compound 0.8 µM
  relative viability: 0.224
NCI-H2087; first compound 2.53 µM
  relative viability: 0.164
NCI-H23; first compound 0.08 µM
  relative viability: 0.529
NCI-H23; first compound 0.8 µM
  relative viability: 0.465
NCI-H23; first compound 2.53 µM
  relative viability: 0.386
NCI-H358; first compound 0.08 µM
  relative viability: 0.149
NCI-H358; first compound 0.253 µM
  relative viability: 0.109
NCI-H358; first compound 0.8 µM
  relative viability: 0.154
NCI-H358; first compound 2.53 µM
  relative viability: 0.166
NCI-H522; first compound 0.08 µM
  relative viability: 1.05
NCI-H522; first compound 0.253 µM
  relative viability: 0.884
NCI-H522; first compound 0.8 µM
  relative viability: 0.973
NCI-H522; first compound 2.53 µM
  relative viability: 1.03
NCI-H727; first compound 0.08 µM
  relative viability: 0.711
NCI-H727; first compound 0.8 µM
  relative viability: 0.642
NCI-H727; first compound 2.53 µM
  relative viability: 0.644
NCI-H838; first compound 0.08 µM
  relative viability: 0.217
NCI-H838; first compound 0.253 µM
  relative viability: 0.203
NCI-H838; first compound 0.8 µM
  relative viability: 0.179
NCI-H838; first compound 2.53 µM
  relative viability: 0.148
PC-14; first compound 0.08 µM
  relative viability: 0.723
PC-14; first compound 0.253 µM
  relative viability: 0.47
PC-14; first compound 0.8 µM
  relative viability: 0.451
PC-14; first compound 2.53 µM
  relative viability: 0.375
SK-MES-1; first compound 0.08 µM
  relative viability: 0.288
SK-MES-1; first compound 0.253 µM
  relative viability: 0.299
SK-MES-1; first compound 0.8 µM
  relative viability: 0.338
SK-MES-1; first compound 2.53 µM
  relative viability: 0.297
SW 1573; first compound 0.08 µM
  relative viability: 0.414
SW 1573; first compound 0.253 µM
  relative viability: 0.3
SW 1573; first compound 0.8 µM
  relative viability: 0.326
SW 1573; first compound 2.53 µM
  relative viability: 0.279
UMC-11; first compound 0.08 µM
  relative viability: 0.326
UMC-11; first compound 0.253 µM
  relative viability: 0.287
UMC-11; first compound 0.8 µM
  relative viability: 0.355
UMC-11; first compound 2.53 µM
  relative viability: 0.232
